In general, IC50 refers to the point on the concentration scale where inhibition reaches its midpoint. Read a high IC50 as weaker potency.

Bounds are passed on as bounds.

The text below walks through data of patent US20250236613A1, “SARM1 MODULATORS, PREPARATIONS, AND USES THEREOF” (SIRONAX LTD., priority 2021, published 2025).

In this test the target is SARM1 (50-724) (Homo sapiens (Human), UniProt Q6SZW1). The test is described as follows: SARM1 (50-724) enzymatic assay. Format: biochemical. The following applies: SARM1 inhibitory activity; 2 nM SARM1 (50-724), 200 μM NMN activator, 100 μM NAD+ substrate, 1 h, LC-MS/MS. The procedure: The enzymatic assay was performed in a 384-well plate using Dulbecco's PBS buffer as the reaction buffer. Purified SARM1 (50-724) with a final concentration of 2 nM was pre-incubated with the test compound at 1% DMSO final assay concentration for 15 min at room temperature. The reaction was initiated by adding the mixture of 200 μM NMN as activator and 100 μM NAD^+ as substrate. After 1 h of incubation at room temperature, the reaction was terminated with 10 times volume of 70% acetonitrile, then centrifuged at 3800 rpm for 10 min. The samples were analyzed using LC-MS/MS after diluted to the proper concentration by 10 mM ammonium acetate (pH 9.75).
Chain of SARM1 (50-724) (Q6SZW1 50-724): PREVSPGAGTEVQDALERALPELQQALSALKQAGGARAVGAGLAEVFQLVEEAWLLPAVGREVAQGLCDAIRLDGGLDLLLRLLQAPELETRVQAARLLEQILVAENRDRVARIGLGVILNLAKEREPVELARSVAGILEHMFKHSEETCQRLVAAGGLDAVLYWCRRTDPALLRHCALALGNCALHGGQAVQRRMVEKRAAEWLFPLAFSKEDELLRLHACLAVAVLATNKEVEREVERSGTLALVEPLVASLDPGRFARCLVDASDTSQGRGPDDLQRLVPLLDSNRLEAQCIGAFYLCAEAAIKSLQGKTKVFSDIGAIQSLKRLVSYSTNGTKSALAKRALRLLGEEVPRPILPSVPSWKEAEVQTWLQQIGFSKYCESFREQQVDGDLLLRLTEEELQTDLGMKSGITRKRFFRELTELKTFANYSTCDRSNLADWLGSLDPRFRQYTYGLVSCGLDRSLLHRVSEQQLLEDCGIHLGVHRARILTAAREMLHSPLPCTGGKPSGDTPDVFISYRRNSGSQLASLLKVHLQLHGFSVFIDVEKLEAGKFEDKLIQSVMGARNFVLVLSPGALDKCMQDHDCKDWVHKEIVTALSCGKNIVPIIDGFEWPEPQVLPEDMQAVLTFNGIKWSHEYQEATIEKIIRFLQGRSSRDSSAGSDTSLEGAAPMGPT
In turn, `Cc1ccc(-c2cnccc2C)cc1O` [Compound 32, 2-methyl-5-(4-methylpyridin-3-yl)phenol] came in with an IC50 of under 5 µM.
As to `Cc1cc(Cl)ncc1-c1ccc2[nH]c(=O)oc2c1` [Compound 66, 6-(6-chloro-4-methylpyridin-3-yl)benzo[d]oxazol-2(3H)-one], the IC50 was 15 to 30 µM.
For `Cc1ccncc1-c1cc(O)cc(Br)c1` [Compound 16, 3-bromo-5-(4-methylpyridin-3-yl)phenol] the value was under 5 µM.
With `Cc1ccncc1-c1ccc2[nH]nnc2c1` [Compound 36, 5-(4-methylpyridin-3-yl)-1H-benzol[d][1,2,3]triazole], the concentration for half-maximal inhibition (IC50) was under 5 µM.
`O=c1[nH]c2ccc(-c3cncc(Nc4ccc(F)cc4)c3)cc2o1` [Compound 100, 6-(5-((4-fluorophenyl)amino)pyridin-3-yl)benzo[d]oxazol-2(3H)-one]: the IC50 is under 5 µM.
`Cc1cc(Nc2cncc(-c3ccc4[nH]c(=O)oc4c3)c2)n(C)n1` [Compound 117, 6-(5-((1,3-dimethyl-1H-pyrazol-5-yl)amino)pyridin-3-yl)benzo[d]oxazol-2(3H)-one] yielded an IC50 of under 5 µM.
Take `Cc1ccncc1-c1cc2cc[nH]c2cc1F` [Compound 34, 6-fluoro-5-(4-methylpyridin-3-yl)-1H-indole]: the half-maximal inhibitory concentration (IC50) is over 30 µM.
In the case of `Cc1ccncc1-c1ccc2c(c1)COCC(=O)N2` [Compound 80, 7-(4-methylpyridin-3-yl)-1,5-dihydrobenzo[e][1,4]oxazepin-2(3H)-one], the 50% inhibitory concentration (IC50) was under 5 µM.
With `Cc1ccncc1-c1ccc2[nH]ncc2c1` [Compound 24, 5-(4-methylpyridin-3-yl)-1H-indazole] the figure was under 5 µM.
Take `Cc1ccncc1-c1ccc2c(c1)OCC(=O)N2` [Compound 45, 7-(4-methylpyridin-3-yl)-2H-benzo[b][1,4]oxazin-3(4H)-one]: the IC50 was 5 to 15 µM.
`N#Cc1cccc(Nc2cncc(-c3ccc4[nH]c(=O)oc4c3)c2)c1` [Compound 107, 3-((5-(2-oxo-2,3-dihydrobenzo[d]oxazol-6-yl)pyridin-3-yl)amino)benzonitrile]: the IC50 is under 5 µM.
`Cc1ccc(Nc2cncc(-c3ccc4[nH]c(=O)oc4c3)c2)cc1` [Compound 98, 6-(5-(p-tolylamino)pyridin-3-yl)benzo[d]oxazol-2(3H)-one] displayed an IC50 of under 5 µM.
For `Cc1ccncc1-c1ccc(O)cc1` [Compound 9, 4-(4-methylpyridin-3-yl)phenol] the value was under 5 µM.
